According to patent US8946266B2, “Substituted triazole and imidazole derivatives as gamma secretase modulators” (Janssen Pharmaceuticals, Inc., priority 2009, dated 2015):

How the values were obtained:
[1] = tested on: Aβ42; test: γ-secretase-modulating activity, Method 1: Aβ42 sandwich ELISA in supernatant of SKNBE2 cells carrying APP 695-wild type (Table 3a); format: cell-based; conditions: 18 h, averaged IC50 values
Protocol: (§1) Pharmacology A) Screening of the Compounds of the Invention for γ-Secretase-Modulating Activity A1) Method 1
(§2) Screening was carried out using SKNBE2 cells carrying the APP 695-wild type, grown in Dulbecco's Modified Eagle's Medium/Nutrient mixture F-12 (DMEM/NUT-mix F-12) (HAM) provided by Gibco (cat no. 31330-38) containing 5% Serum/Fe supplemented with 1% non-essential amino acids. Cells were grown to near confluency.
(§3) The screening was performed using the assay as described in Citron et al (1997) Nature Medicine 3: 67. Briefly, cells were plated in a 96-well plate at about 10^5 cells/ml one day prior to addition of compounds. Compounds were added to the cells in Ultraculture (Lonza, BE12-725F) supplemented with 1% glutamine (Invitrogen, 25030-024) for 18 h. The media were assayed by two sandwich ELISAs, for Aβ42 and Aβtotal. Toxicity of the compounds was assayed by WST-1 cell proliferation reagent (Roche, 1 644 807) according to the manufacturer's protocol.
To quantify the amount of Aβ42 in the cell supernatant, commercially available Enzyme-Linked-Immunosorbent-Assay (ELISA) kits were used (Innotest® β-Amyloid(1-42), Innogenetics N.V., Ghent, Belgium). The Aβ42 ELISA was performed essentially according to the manufacturer's protocol. Briefly, the standards (dilutions of synthetic Aβ1-42) were prepared in polypropylene Eppendorf with final concentrations of 8000 down to 3.9 pg/ml (1/2 dilution step). Samples, standards and blanks (100 μl) were added to the anti-Aβ42-coated plate supplied with the kit (the capture antibody selectively recognizes the C-terminal end of the antigen). The plate was allowed to incubate 3 h at 25° C. in order to allow formation of the antibody-amyloid complex. Following this incubation and subsequent wash steps a selective anti-Aβ-antibody conjugate (biotinylated 3D6) was added and incubated for a minimum of 1 hour (h) in order to allow formation of the antibody-Amyloid-antibody-complex. After incubation and appropriate wash steps, a Streptavidine-Peroxidase-Conjugate was added, followed 30 minutes later by an addition of 3,3′,5,5′-tetramethylbenzidine (TMB)/peroxide mixture, resulting in the conversion of the substrate into a coloured product. This reaction was stopped by the addition of sulfuric acid (0.9 N) and the colour intensity was measured by means of photometry with an ELISA-reader with a 450 nm filter.
To obtain the values reported in Table 3a, the data were calculated as percentage of the maximum amount of amyloid Beta 42 measured in the absence of the test compound. The sigmoidal dose response curves were analyzed using non-linear regression analysis with percentage of the control plotted against the log concentration of the compound. A 4-parameter equation was used to determine the IC50. The values reported in Table 3a are averaged IC50 values.

[2] = tested on: Aβtotal; test: γ-secretase-modulating activity, Method 1: Aβtotal sandwich ELISA in supernatant of SKNBE2 cells carrying APP 695-wild type; format: cell-based; conditions: Table 3a, 18 h, averaged IC50 values
Protocol: as §1, §2, §3
To quantify the amount of Aβtotal in the cell supernatant, samples and standards were added to a 6E10-coated plate. The plate was allowed to incubate overnight at 4° C. in order to allow formation of the antibody-amyloid complex. Following this incubation and subsequent wash steps a selective anti-Aβ-antibody conjugate (biotinylated 4G8) was added and incubated for a minimum of 1 h in order to allow formation of the antibody-Amyloid-antibody-complex. After incubation and appropriate wash steps, a Streptavidine-Peroxidase-Conjugate was added, followed 30 minutes later by an addition of Quanta Blu fluorogenic peroxidase substrate according to the manufacturer's instructions (Pierce Corp., Rockford, Ill.).

[3] = tested on: Aβ42; test: γ-secretase-modulating activity, Method 2: Aβ42 Alphalisa in supernatant of SKNBE2 cells carrying APP 695-wild type (Table 3b); format: cell-based; conditions: overnight
Summary of the method: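 SKNBE2 cells expressing wild-type APP695 were incubated overnight at 37° C. with test compound. Secreted Aβ42 was then measured by AlphaLISA, using a C-terminal Aβ42 antibody paired with an N-terminal Aβ antibody. IC50 came from a 4-parameter fit of percent of compound-free control.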

[4] = tested on: Aβtotal; test: γ-secretase-modulating activity, Method 2: Aβtotal Alphalisa in supernatant of SKNBE2 cells carrying APP 695-wild type (Table 3b); format: cell-based; conditions: overnight, read-out: IC50 Aβtot
Summary of the method: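 SKNBE2 cells expressing wild-type APP 695 were incubated overnight at 37 °C, 5% CO2 with test compound at a range of concentrations. Aβtotal in supernatant was measured by AlphaLISA sandwich (N-terminal JRF/AβN/25 acceptor, biotinylated mid-region 4G8 donor); IC50 from 4-parameter fit of percent control versus log concentration.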

[5] = tested on: Aβ42; test: In vivo efficacy, Method 1: brain soluble Aβ42 lowering 4 h after a single oral dose, ELISA (Table 4a); parameters: species or system mouse; conditions: dose 30 mg/kg oral dosing
From the text: (§4) To determine whether acute administration of an Aβ42 lowering agent would reduce Aβ42 levels in vivo, non-transgenic rodents, e.g. mice or rats were used. Alternatively, two to three month old Tg2576 mice expressing APP695 containing the “Swedish” variant can be used or a transgenic mouse model developed by Dr. Fred Van Leuven (K.U. Leuven, Belgium) and co-workers, with neuron-specific expression of a clinical mutant of the human amyloid precursor protein [V717I] (Moechars et al., 1999 J. Biol. Chem. 274, 6483). Young transgenic mice have high levels of Aβ in the brain but no detectable Aβ deposition. At approximately 6-8 months of age, the transgenic mice start to display spontaneous, progressive accumulation of β-amyloid (Aβ) in the brain, eventually resulting in amyloid plaques within the subiculum, hippocampus and cortex. Animals treated with the Aβ42 lowering agent were examined and compared to those untreated or treated with vehicle and brain levels of soluble Aβ42 and total Aβ would be quantitated by standard techniques, for example, using ELISA. Treatment periods varied from hours (h) to days and were adjusted based on the results of the Aβ42 lowering once a time course of onset of effect could be established.
(§5) A typical protocol for measuring Aβ42 lowering in vivo is shown but it is only one of many variations that could be used to optimize the levels of detectable Aβ. For example, Aβ42 lowering compounds were formulated in 20% of Captisol® (a sulfobutyl ether of β-cyclodextrin) in water or 20% hydroxypropyl cyclodextrin. The Aβ42 lowering agents were administered as a single oral dose or by any acceptable route of administration to overnight fasted animals. After 4 h, the animals were sacrificed and Aβ42 levels were analysed.
(§6) Blood was collected by decapitation and exsanguinations in EDTA-treated collection tubes. Blood was centrifuged at 1900 g for 10 minutes (min) at 4° C. and the plasma recovered and flash frozen for later analysis. The brain was removed from the cranium and hindbrain. The cerebellum was removed and the left and right hemisphere were separated. The left hemisphere was stored at −18° C. for quantitative analysis of test compound levels. The right hemisphere was rinsed with phosphate-buffered saline (PBS) buffer and immediately frozen on dry ice and stored at −80° C. until homogenization for biochemical assays.
(§7) Mouse brains were resuspended in 10 volumes of 0.4% DEA (diethylamine)/50 mM NaCl pH 10 (for non-transgenic animals) or 0.1% 3-[(3-cholamidopropyl)-dimethyl-ammonio]-1-propanesulfonate (CHAPS) in tris buffered saline (TBS) (for transgenic animals) containing protease inhibitors (Roche-11873580001 or 04693159001) per gram of tissue, e.g. for 0.158 g brain, add 1.58 ml of 0.4% DEA. All samples were sonicated for 30 seconds on ice at 20% power output (pulse mode). Homogenates were centrifuged at 221.300×g for 50 min. The resulting high speed supernatants were then transferred to fresh tubes and were optionally further purified before the next step. A portion of the supernatant was neutralized with 10% 0.5 M Tris-HCl and this was used to quantify Aβtotal.
The obtained supernatants were purified with Water Oasis HLB reverse phase columns (Waters Corp., Milford, Mass.) to remove non-specific immunoreactive material from the brain lysates prior subsequent Aβ detection. Using a vacuum manifold, all solutions were passed through the columns at a rate of approximately 1 ml per min, so the vacuum pressure was adjusted accordingly throughout the procedure. Columns were preconditioned with 1 ml of 100% MeOH, before equilibration with 1 ml of H2O, Non-neutralized brain lysates were loaded onto the columns. The loaded samples were then washed twice with the first wash performed with 1 ml of 5% MeOH, and the second wash with 1 ml of 30% MeOH. Finally, the Aβ was eluted from the columns and into 100×30 mm glass tubes, with a solution of 90% MeOH with 2% NH4OH. […]

[6] = tested on: Aβtotal; test: In vivo efficacy, Method 1: brain soluble Aβtotal lowering 4 h after a single oral dose, ELISA (Table 4a); parameters: species or system mouse; conditions: dose 30 mg/kg oral dosing
From the text: as §4, §5, §6, §7
To quantify the amount of Aβ42 in the soluble fraction of the brain homogenates, commercially available Enzyme-Linked-Immunosorbent-Assay (ELISA) kits were used (e.g. Innotest® β-Amyloid(1-42), Innogenetics N.V., Ghent, Belgium). The Aβ42 ELISA was performed using the plate provided with the kit only. Briefly, the standards (a dilution of synthetic Aβ1-42) were prepared in 1.5 ml Eppendorf tube in Ultraculture, with final concentrations ranging from 25000 to 1.5 pg/ml. Samples, standards and blanks (60 μl) were added to the anti-Aβ42-coated plate (the capture antibody selectively recognizes the C-terminal end of the antigen). The plate was allowed to incubate overnight at 4° C. in order to allow formation of the antibody-amyloid complex. […]

IC50 ([1]; Homo sapiens) [µM]	IC50 ([2]; Homo sapiens) [µM]	IC50 ([3]; Homo sapiens) [µM]	IC50 ([4]; Homo sapiens) [µM]	melting point [°C]	IC50 [1] [µM]	IC50 [2] [µM]	IC50 [3] [µM]	IC50 [4] [µM]	Compound	Aβ42 (% Ctrl) _Mean [5] [% Ctrl]	Aβtotal (% Ctrl) _Mean [6] [% Ctrl]
0.09	> 3	0.033	3.63						COc1cc(-c2nc(C)c(-c3cccc(C(F)(F)F)c3)[nH]2)ccc1-n1cnc(C)c1 [Compound 12]		
					0.76	> 3			COc1cc(-c2nc(CC(C)C)c(C)[nH]2)ccc1-n1cnc(C)c1 [Compound 26]		
					0.17	> 10	< 3	> 3	COc1cc(-n2cnc(C)c2)ccc1-c1nc(-c2ccccc2)c(C)[nH]1 [Compound 27]		
					> 3	> 3	> 3	> 3	COc1cc(-c2nc(-c3ccccc3)c(C)[nH]2)ccc1-n1cnc(C)n1 [Compound 28]		
					0.19	> 3	0.17	> 10	CCCc1[nH]c(-c2ccc(-n3cnc(C)c3)c(OC)c2)nc1-c1ccccc1 [Compound 29]		
					> 3	> 3	8.13	> 10	COc1cc(-c2nc(-c3ccccc3)c(C)[nH]2)ccc1-n1ncnc1C [Compound 299]		

Second part, the compound before the results:

Compound	IC50 ([1]; Homo sapiens) [µM]	IC50 ([2]; Homo sapiens) [µM]	IC50 ([3]; Homo sapiens) [µM]	IC50 ([4]; Homo sapiens) [µM]	melting point [°C]	IC50 [1] [µM]	IC50 [2] [µM]	IC50 [3] [µM]	IC50 [4] [µM]	Aβ42 (% Ctrl) _Mean [5] [% Ctrl]	Aβtotal (% Ctrl) _Mean [6] [% Ctrl]
COc1cc(-c2nc(C)n(-c3ccc(F)cc3)n2)ccc1-n1cnc(C)c1 [Compound 3]	0.49	> 3	0.417	> 10	157.3						
COc1cc(-c2nc(C)c(-c3cccc(C(F)(F)F)c3)n2C)ccc1-n1cnc(C)c1 [Compound 13]						1.05	> 3	0.724	> 10		
COc1cc(-c2nc(-c3cccc(C(F)(F)F)c3)c(C)n2C)ccc1-n1cnc(C)c1 [Compound 14]						0.5	> 3	0.282	5.25		
Cc1cn(-c2ccc(-c3nc(Nc4cccc(C(F)(F)F)c4)n[nH]3)cn2)cn1 [Compound 24]	1.45	> 3	1.05	6.61							
COc1cc(-c2nc(C)c(C)[nH]2)ccc1-n1cnc(C)c1 [Compound 25]						2.51	> 3	6.46	> 10		
COc1cc(-c2nc(C(C)C)n(-c3cccc(C(F)(F)F)c3)n2)ccc1-n1cnc(C)c1.Cl [Compound 32]								0.191	6.76	6	2
COc1cc(-c2nc(-c3cccc(C(F)(F)F)c3)n(C(C)C)n2)ccc1-n1cnc(C)c1 [Compound 39]			0.105	7.94						17	0
COc1nc(-c2nc(-c3cccc(C(F)(F)F)c3)n(C(C)C)n2)ccc1-n1cnc(C)c1.Cl.Cl [Compound 68]								0.135	> 10	29	−3
